# Key:
# PC-12 [1] = assay: Selectivity index, ratio of Ki for sigma1 receptor in Sprague-Dawley rat cortical membranes to Ki for rat VAChT expressed in PC12 cell membranes; format: cell-based
# [2] = biological target: Sigma non-opioid intracellular receptor 1 (Rattus norvegicus, UniProt Q9R0C9); assay: Displacement of […] from sigma1 receptor in Sprague-Dawley rat cortical membranes incubated for 2 hrs by liquid scintillation counting based competitive radioligand binding assay; settings: read-out: Ki(app)
# Sigma non-opioid intracellular receptor 1, sequence (Q9R0C9 whole entry): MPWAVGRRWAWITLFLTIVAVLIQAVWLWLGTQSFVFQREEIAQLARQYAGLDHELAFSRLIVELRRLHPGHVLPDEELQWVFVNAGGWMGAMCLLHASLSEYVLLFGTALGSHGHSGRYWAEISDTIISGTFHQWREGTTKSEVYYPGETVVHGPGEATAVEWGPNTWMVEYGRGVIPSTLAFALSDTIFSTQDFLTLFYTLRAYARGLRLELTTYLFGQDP
# [3] = Displacement of [3H]DTG from sigma2 receptor in Sprague-Dawley rat liver membranes incubated for 2 hrs in presence of dextrallorphan by liquid scintillation counting based competitive radioligand binding assay; settings: read-out: Ki(app)
# [4] = biological target: T1, Vesicular acetylcholine transporter (Rattus norvegicus, UniProt Q62666); assay: Displacement of (-)-[3H]vesamicol from rat VAChT expressed in PC12 cell membranes incubated for 2 hrs by liquid scintillation counting based competitive radioligand binding assay; parameters: species or system PC-12; settings: read-out: Ki(app)
# T1 sequence (Q62666 whole entry): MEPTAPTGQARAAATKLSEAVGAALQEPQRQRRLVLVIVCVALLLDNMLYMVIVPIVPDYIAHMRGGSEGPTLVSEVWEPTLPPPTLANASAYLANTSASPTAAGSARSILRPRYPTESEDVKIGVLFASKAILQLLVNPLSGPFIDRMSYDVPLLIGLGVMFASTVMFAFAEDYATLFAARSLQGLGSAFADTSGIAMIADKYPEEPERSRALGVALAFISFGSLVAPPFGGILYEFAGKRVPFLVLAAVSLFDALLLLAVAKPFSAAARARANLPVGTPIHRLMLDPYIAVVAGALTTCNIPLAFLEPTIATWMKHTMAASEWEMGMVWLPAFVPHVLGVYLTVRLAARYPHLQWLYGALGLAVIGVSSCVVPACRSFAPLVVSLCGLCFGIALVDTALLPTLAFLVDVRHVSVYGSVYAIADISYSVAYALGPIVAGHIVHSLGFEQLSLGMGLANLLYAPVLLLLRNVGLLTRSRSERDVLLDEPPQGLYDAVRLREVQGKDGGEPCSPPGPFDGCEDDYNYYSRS
# PC-12 [5] = assay: Selectivity index, ratio of Ki for sigma2 receptor in Sprague-Dawley rat liver membranes to Ki for rat VAChT expressed in PC12 cell membranes; format: cell-based
# [6] = biological target: T2, Vesicular acetylcholine transporter (Torpedo californica, UniProt P81721); assay: Displacement of (-)-[3H]vesamicol from VAChT in Torpedo californica electric organ synaptic vesicles; parameters: species or system Tetronarce californica; settings: read-out: Ki(app)
# T2 sequence (P81721 whole entry): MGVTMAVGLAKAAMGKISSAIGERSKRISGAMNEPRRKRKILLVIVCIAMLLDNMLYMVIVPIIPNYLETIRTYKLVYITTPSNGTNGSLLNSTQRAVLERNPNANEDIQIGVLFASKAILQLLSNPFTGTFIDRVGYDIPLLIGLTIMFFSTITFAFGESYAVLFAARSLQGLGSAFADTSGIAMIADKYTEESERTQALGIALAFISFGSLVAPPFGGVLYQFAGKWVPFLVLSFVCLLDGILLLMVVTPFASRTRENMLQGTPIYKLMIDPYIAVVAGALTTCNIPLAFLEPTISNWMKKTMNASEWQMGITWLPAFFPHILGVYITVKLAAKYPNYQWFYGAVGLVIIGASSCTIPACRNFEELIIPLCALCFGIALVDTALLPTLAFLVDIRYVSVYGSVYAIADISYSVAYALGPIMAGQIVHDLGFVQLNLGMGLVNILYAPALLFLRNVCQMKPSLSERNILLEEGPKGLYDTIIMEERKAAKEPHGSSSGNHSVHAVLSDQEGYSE
Ki [2],Ki [3],Ki [4],Compound,Ratio Ki (PC-12 [1]),Ratio Ki (PC-12 [5]),Ki [6]
6430 nM,3620 nM,156 nM,O=C(Nc1cccc2c1C[C@@H](N1CCC(c3ccccc3)CC1)[C@H](O)C2)c1ccc(F)cc1 (racemic),41.2,23.2,–
1770 nM,2080 nM,527 nM,O=C(Nc1cccc2c1C[C@@H](N1CCC(Cc3ccccc3)CC1)[C@H](O)C2)c1ccc(F)cc1 (racemic),3.4,3.9,–
626 nM,1380 nM,188 nM,O=C(Nc1cccc2c1C[C@@H](O)[C@H](N1CCC(c3ccccc3)CC1)C2)c1ccc(F)cc1 (racemic),3.3,2.2,–
454 nM,1990 nM,1000 nM,O[C@@H]1CCCC[C@H]1N1CCC(O)(c2ccccc2)CC1 (racemic),0.4,1.9,–
83.9 nM,695 nM,838 nM,O[C@@H]1CCCC[C@H]1N1CCN(c2ccccc2)CC1 (racemic),0.1,0.8,–
119 nM,474 nM,25.1 nM,Nc1cccc2c1C[C@@H](N1CCC(c3ccccc3)CC1)[C@H](O)C2 (racemic),4.7,18.9,0.013 nM

Compound,Ki [2],Ki [3],Ki [4],Ratio Ki (PC-12 [1]),Ratio Ki (PC-12 [5]),Ki [6]
O[C@@H]1CC=CC[C@H]1N1CCC(c2ccccc2)CC1 (racemic),5.8 nM,77.1 nM,18.4 nM,0.3,4.2,0.34 nM
O[C@@H]1CCCC[C@H]1N1CC=C(c2ccccc2)CC1 (racemic),9.7 nM,158 nM,439 nM,< 0.1,0.4,–
O=C(c1ccc(F)cc1)C1CCN([C@@H]2Cc3ccccc3C[C@H]2O)CC1 (racemic),215 nM,284 nM,24.4 nM,8.8,1.6,2.7 nM

# Source: ChEMBL document CHEMBL3588818 (Eur J Med Chem, 2015)
